Data on four compounds can be found in patent US11000033B2, “Ketone or oxime compound, and herbicide” (NISSAN CHEMICAL CORPORATION, priority 2014, dated 2021).

SMILES strings stand for the structures.

Holding throughout (assay type): in vivo
One series relates to Lolium multiflorum Lam. Put plainly: Test Example 5: herbicidal effect by foliage application, plastic box (symbol K). The note with it: 320 g/ha, 3 weeks after application. In outline:
(§1)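 Sowing in sterilized diluvial soil, 14 days' greenhouse growth at 25° C. to 30° C., then uniform small-sprayer foliar application of aqueous emulsion dilution; plants scored three weeks afterwards.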

The subject of a further series is Galium spurium. The experiment in a line: Test Example 5: herbicidal effect by foliage application, plastic box (symbol Q). Particulars: 320 g/ha, 3 weeks after application. In outline: as §1
The next series deals with Monochoria vaginalis. The experiment in a line: Test Example 1: herbicidal activity, application before weed generation in submerged conditions (symbol C). Particulars: application herbicide amount 320 g/ha. In outline:
(§2)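 Ratings (5: ≥90%, near complete withering; 4: 70–<90%; 3: 40–<70%; 2: 20–<40%; 1: 5–<20%; 0: ≤5%) were assigned 3 weeks after the diluted emulsion was applied to the water surface of freshly sown, submerged pots.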

The subject of another series is Setaria viridis. Put plainly: Test Example 5: herbicidal effect by foliage application, plastic box (symbol G). Particulars: 320 g/ha, 3 weeks after application. In outline:
as §1

The test system of another series is Cyperus difformis. Put plainly: Test Example 3: herbicidal effect by foliage application, Wagner pot (symbol E). The note with it: application herbicide amount 320 g/ha. An outline of the steps: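 Foliar spray of water-diluted emulsion formulation at a predetermined herbicide amount onto 14-day-old plants in flooded alluvial soil (water depth 0.1–0.5 cm), greenhouse 25–30 °C; rice sown alongside. Scored 3 wk post-application on set criteria.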

Series [1] has as its system rapeseed. Put plainly: Test Example 4: effect on crop by soil treatment (symbol g). Particulars: 320 g/ha. An outline of the steps:
(§3)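 Crop seeds, among them rice, wheat, beet and rapeseed, were sown in sterilized diluvial soil and covered with about 1.5 cm of soil. Boxes were kept in a greenhouse at 25° C. to 30° C. for plant growth.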

In the next series the test system is Apera spica-venti. Put plainly: Test Example 5: herbicidal effect by foliage application, plastic box (symbol L). Particulars: 320 g/ha, 3 weeks after application. In outline: as §1
The test system of series [2] is beet. Put plainly: Test Example 5: effect on crop by foliage application, plastic box (symbol f). The note with it: 320 g/ha, 3 weeks after application. An outline of the steps:
(§4)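 Sterilized diluvial soil, plastic box (21 × 13 × 7 cm); spot sowing, ~1.5 cm soil cover; greenhouse 25–30° C.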

A further series relates to wheat. Put plainly: Test Example 5: effect on crop by foliage application, plastic box (symbol e). Particulars: 320 g/ha, 3 weeks after application. In outline:
as §4

In series [3] the test system is beet. Put plainly: Test Example 4: effect on crop by soil treatment (symbol f). The note with it: 320 g/ha. An outline of the steps:
as §3

Another series concerns Amaranthus retroflexus. Put plainly: Test Example 4: herbicidal effect by soil treatment (symbol N). The note with it: 320 g/ha. An outline of the steps:
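Seeds were sown in sterilized diluvial soil, covered with about 1.5 cm of soil, and the soil surface was sprayed with a water-diluted emulsion of the compound at a predetermined rate. Plants grew in a greenhouse at 25° C. to 30° C.; effects were scored visually 3 weeks after application.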

Series [4] relates to rapeseed. Put plainly: Test Example 5: effect on crop by foliage application, plastic box (symbol g). Particulars: 320 g/ha, 3 weeks after application. In outline:
as §4

Another series relates to Scirpus juncoides. Put plainly: Test Example 1: herbicidal activity, application before weed generation in submerged conditions (symbol B). Particulars: application herbicide amount 320 g/ha. In outline:
as §2

Another series concerns corn. Put plainly: Test Example 4: effect on crop by soil treatment (symbol c). Particulars: 320 g/ha. In outline: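 The test used sterilized diluvial soil. Seed was set down in spots and overlaid with about 1.5 cm of soil before growth in a greenhouse kept at 25° C. to 30° C.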

Regarding `CON=C(C)CC1CC(OC(=O)c2nc(C)sc2C)=C(c2c(C)cc(C)cc2C)C1=O` (centres unmarked) [1-101], the “K: Lolium multiflorum Lam., herbicidal effect (criteria 0-5)” value in the series with Lolium multiflorum Lam. is recorded as 5 (Herbicidal ratio of 90% or more (almost completely withered)). For the same compound, the “Q: Galium spurium, herbicidal effect (criteria 0-5)” value (from here on “Q: Galium spurium”) in the series on Galium spurium is 0 (Herbicidal ratio of 5% or lower (almost no effect)). Further, in the series with Monochoria vaginalis, the “Herbicidal effect grade, C: Monochoria vaginalis” value (shortened to “Herbicidal effect grade, C”) was 2 (Herbicidal ratio of 20% or higher and lower than 40%). Further, in the series with Setaria viridis, the “G: Setaria viridis, herbicidal effect (criteria 0-5)” value (“G: Setaria viridis” for short) is recorded as 5 (Herbicidal ratio of 90% or more (almost completely withered)). The “herbicidal effect on E, grade 0-5” value in the series with Cyperus difformis is reported as 5 (Herbicidal ratio of 90% or more (almost completely withered)). The “g: rapeseed, effect grade on crop” value in the series with rapeseed [1] is 5 (Herbicidal ratio of 90% or more (almost completely withered)). In the series on Apera spica-venti, the “L: Apera spica-venti, herbicidal effect (criteria 0-5)” value (“L: Apera spica-venti” below) was 5 (Herbicidal ratio of 90% or more (almost completely withered)). In addition, the “f: beet, effect on crop (criteria 0-5)” value in the series with beet [2] was 0 (Herbicidal ratio of 5% or lower (almost no effect)). For the same compound, the “e: wheat, effect on crop (criteria 0-5)” value with wheat is 5 (Herbicidal ratio of 90% or more (almost completely withered)). The “f: beet, effect grade on crop” value with beet [3] was 3 (Herbicidal ratio of 40% or higher and lower than 70%). Moreover, the “N: Amaranthus retroflexus, herbicidal effect grade” value (“N: Amaranthus retroflexus” for short) in the series on Amaranthus retroflexus was 3 (Herbicidal ratio of 40% or higher and lower than 70%). Besides, in the series on rapeseed [4], the “g: rapeseed, effect on crop (criteria 0-5)” value (from here on “g: rapeseed, effect on crop”) is listed as 5 (Herbicidal ratio of 90% or more (almost completely withered)). The “Herbicidal effect grade, B: Scirpus juncoides” value (from here on “Herbicidal effect grade, B”) in the series on Scirpus juncoides is recorded as 5 (Herbicidal ratio of 90% or more (almost completely withered)). Further, the “c: corn, effect grade on crop” value in the series with corn was 5 (Herbicidal ratio of 90% or more (almost completely withered)).
Regarding `CON=C(C)CON=C(C)CC1CC(O)=C(c2c(C)cc(C)cc2C)C1=O` (centres unmarked) [1-105], the “K: Lolium multiflorum Lam., herbicidal effect (criteria 0-5)” value in the series on Lolium multiflorum Lam. is listed as 5 (Herbicidal ratio of 90% or more (almost completely withered)). The “Q: Galium spurium” value in the series with Galium spurium is 2 (Herbicidal ratio of 20% or higher and lower than 40%). In the series with Monochoria vaginalis, the “Herbicidal effect grade, C” value is 4 (Herbicidal ratio of 70% or higher and lower than 90%). In addition, the “G: Setaria viridis” value with Setaria viridis is given as 5 (Herbicidal ratio of 90% or more (almost completely withered)). Besides, in the series on Cyperus difformis, the “herbicidal effect on E, grade 0-5” value is on record as 5 (Herbicidal ratio of 90% or more (almost completely withered)). The “g: rapeseed, effect grade on crop” value in the series with rapeseed [1] is 3 (Herbicidal ratio of 40% or higher and lower than 70%). Moreover, the “L: Apera spica-venti” value with Apera spica-venti is recorded as 5 (Herbicidal ratio of 90% or more (almost completely withered)). Further, the “f: beet, effect on crop (criteria 0-5)” value with beet [2] is 0 (Herbicidal ratio of 5% or lower (almost no effect)). Moreover, the “e: wheat, effect on crop (criteria 0-5)” value in the series on wheat is 5 (Herbicidal ratio of 90% or more (almost completely withered)). Further, in the series with beet [3], the “f: beet, effect grade on crop” value is recorded as 0 (Herbicidal ratio of 5% or lower (almost no effect)). In the series on Amaranthus retroflexus, the “N: Amaranthus retroflexus” value is 4 (Herbicidal ratio of 70% or higher and lower than 90%). The “g: rapeseed, effect on crop” value with rapeseed [4] is 4 (Herbicidal ratio of 70% or higher and lower than 90%). Moreover, the “Herbicidal effect grade, B” value in the series with Scirpus juncoides is recorded as 5 (Herbicidal ratio of 90% or more (almost completely withered)). For the same compound, the “c: corn, effect grade on crop” value in the series with corn is 1 (Herbicidal ratio of 5% or higher and lower than 20%).
In the case of `CC(CC1CC(O)=C(c2c(C)cc(C)cc2C)C1=O)=NOCCS(C)(=O)=O` (centres unmarked) [1-110], the “K: Lolium multiflorum Lam., herbicidal effect (criteria 0-5)” value in the series on Lolium multiflorum Lam. is given as 5 (Herbicidal ratio of 90% or more (almost completely withered)). For the same compound, the “Q: Galium spurium” value in the series on Galium spurium is 3 (Herbicidal ratio of 40% or higher and lower than 70%). The “Herbicidal effect grade, C” value in the series on Monochoria vaginalis is 0 (Herbicidal ratio of 5% or lower (almost no effect)). The “G: Setaria viridis” value in the series on Setaria viridis is reported as 5 (Herbicidal ratio of 90% or more (almost completely withered)). Besides, the “herbicidal effect on E, grade 0-5” value in the series with Cyperus difformis is 5 (Herbicidal ratio of 90% or more (almost completely withered)). For the same compound, the “g: rapeseed, effect grade on crop” value in the series on rapeseed [1] was 1 (Herbicidal ratio of 5% or higher and lower than 20%). Also, the “L: Apera spica-venti” value in the series with Apera spica-venti is on record as 5 (Herbicidal ratio of 90% or more (almost completely withered)). In addition, the “f: beet, effect on crop (criteria 0-5)” value in the series with beet [2] is listed as 0 (Herbicidal ratio of 5% or lower (almost no effect)). Also, the “e: wheat, effect on crop (criteria 0-5)” value in the series on wheat is 5 (Herbicidal ratio of 90% or more (almost completely withered)). Also, the “f: beet, effect grade on crop” value in the series with beet [3] was 0 (Herbicidal ratio of 5% or lower (almost no effect)). Besides, the “N: Amaranthus retroflexus” value with Amaranthus retroflexus is on record as 0 (Herbicidal ratio of 5% or lower (almost no effect)). In addition, the “g: rapeseed, effect on crop” value in the series with rapeseed [4] is recorded as 5 (Herbicidal ratio of 90% or more (almost completely withered)). For the same compound, the “Herbicidal effect grade, B” value with Scirpus juncoides is recorded as 0 (Herbicidal ratio of 5% or lower (almost no effect)). The “c: corn, effect grade on crop” value in the series on corn was 4 (Herbicidal ratio of 70% or higher and lower than 90%).
As for `CC(CC1CC(O)=C(c2c(C)cc(C)cc2C)C1=O)=NOCC1OCCO1` (centres unmarked) [1-111], in the series on Lolium multiflorum Lam., the “K: Lolium multiflorum Lam., herbicidal effect (criteria 0-5)” value is listed as 5 (Herbicidal ratio of 90% or more (almost completely withered)). Besides, in the series with Galium spurium, the “Q: Galium spurium” value is 2 (Herbicidal ratio of 20% or higher and lower than 40%). The “Herbicidal effect grade, C” value in the series on Monochoria vaginalis was 1 (Herbicidal ratio of 5% or higher and lower than 20%). Moreover, the “G: Setaria viridis” value with Setaria viridis is reported as 5 (Herbicidal ratio of 90% or more (almost completely withered)). The “herbicidal effect on E, grade 0-5” value with Cyperus difformis is 5 (Herbicidal ratio of 90% or more (almost completely withered)). The “g: rapeseed, effect grade on crop” value in the series with rapeseed [1] is 4 (Herbicidal ratio of 70% or higher and lower than 90%). Further, the “L: Apera spica-venti” value in the series on Apera spica-venti is reported as 5 (Herbicidal ratio of 90% or more (almost completely withered)). Moreover, the “f: beet, effect on crop (criteria 0-5)” value with beet [2] was 0 (Herbicidal ratio of 5% or lower (almost no effect)). Besides, the “e: wheat, effect on crop (criteria 0-5)” value with wheat is given as 5 (Herbicidal ratio of 90% or more (almost completely withered)). Further, in the series with beet [3], the “f: beet, effect grade on crop” value is given as 0 (Herbicidal ratio of 5% or lower (almost no effect)). The “N: Amaranthus retroflexus” value in the series with Amaranthus retroflexus was 0 (Herbicidal ratio of 5% or lower (almost no effect)). Besides, the “g: rapeseed, effect on crop” value in the series with rapeseed [4] is 5 (Herbicidal ratio of 90% or more (almost completely withered)). For the same compound, the “Herbicidal effect grade, B” value with Scirpus juncoides was 2 (Herbicidal ratio of 20% or higher and lower than 40%). Moreover, the “c: corn, effect grade on crop” value with corn was 1 (Herbicidal ratio of 5% or higher and lower than 20%).
